This passage reports Kd results from ChEMBL document CHEMBL3991601, “The target landscape of clinical kinase drugs” (Science, 2017).

Calls of active or inactive are those of the source. Cut-off read from the data, not from the text of the source, for most assays here: actives have a measured Kd and inactives only a lower limit.

The target in experiment [1] is Calcium/calmodulin-dependent protein kinase type II subunit delta (Homo sapiens, UniProt Q13557).
Experiment [2] addresses Mitogen-activated protein kinase 8 (Homo sapiens, UniProt P45983).
Experiment [3] has as its target Mitogen-activated protein kinase 9 (Homo sapiens, UniProt P45984).
The target in experiment [4] is 5'-AMP-activated protein kinase catalytic subunit alpha-1 (Homo sapiens, UniProt Q13131).
The target in experiment [5] is T1, Peroxisomal acyl-coenzyme A oxidase 3 (Homo sapiens, UniProt O15254).
T1 sequence (O15254 whole entry): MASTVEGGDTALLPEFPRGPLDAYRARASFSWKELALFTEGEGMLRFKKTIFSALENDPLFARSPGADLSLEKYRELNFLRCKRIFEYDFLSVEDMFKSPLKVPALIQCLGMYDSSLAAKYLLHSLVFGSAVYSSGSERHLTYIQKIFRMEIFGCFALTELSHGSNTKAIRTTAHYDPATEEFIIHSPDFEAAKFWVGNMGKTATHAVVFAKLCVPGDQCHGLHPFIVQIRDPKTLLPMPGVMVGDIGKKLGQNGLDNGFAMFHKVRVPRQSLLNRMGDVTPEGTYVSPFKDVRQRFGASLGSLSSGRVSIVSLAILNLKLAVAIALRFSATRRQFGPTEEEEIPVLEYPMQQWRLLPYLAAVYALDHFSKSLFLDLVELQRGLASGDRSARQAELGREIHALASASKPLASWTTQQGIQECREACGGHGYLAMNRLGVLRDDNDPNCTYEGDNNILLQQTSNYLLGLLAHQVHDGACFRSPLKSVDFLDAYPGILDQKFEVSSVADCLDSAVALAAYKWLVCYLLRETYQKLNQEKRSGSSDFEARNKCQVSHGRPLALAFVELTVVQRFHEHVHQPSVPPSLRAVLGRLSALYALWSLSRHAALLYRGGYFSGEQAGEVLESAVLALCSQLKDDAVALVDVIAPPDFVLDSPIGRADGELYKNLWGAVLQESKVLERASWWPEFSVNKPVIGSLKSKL

Experiment [6] deals with T2, Phosphatidylinositol 5-phosphate 4-kinase type-2 alpha (Homo sapiens, UniProt P48426).
T2 sequence (P48426 whole entry): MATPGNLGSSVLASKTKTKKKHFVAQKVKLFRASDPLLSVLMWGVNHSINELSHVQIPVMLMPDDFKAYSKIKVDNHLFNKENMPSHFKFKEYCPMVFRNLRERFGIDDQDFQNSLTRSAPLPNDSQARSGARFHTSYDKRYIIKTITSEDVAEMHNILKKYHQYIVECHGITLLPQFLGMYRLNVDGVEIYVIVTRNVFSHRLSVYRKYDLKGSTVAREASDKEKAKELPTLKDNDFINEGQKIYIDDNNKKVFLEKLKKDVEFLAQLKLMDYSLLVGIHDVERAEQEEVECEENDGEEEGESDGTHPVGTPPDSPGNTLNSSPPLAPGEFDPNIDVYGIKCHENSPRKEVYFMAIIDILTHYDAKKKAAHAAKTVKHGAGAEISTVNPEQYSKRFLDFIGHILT

Experiment [7] has as its target Serine/threonine-protein kinase 16 (Homo sapiens, UniProt O75716).
For experiment [8], the target named is T3, Adenine phosphoribosyltransferase (Homo sapiens, UniProt P07741).
T3 sequence (P07741 whole entry): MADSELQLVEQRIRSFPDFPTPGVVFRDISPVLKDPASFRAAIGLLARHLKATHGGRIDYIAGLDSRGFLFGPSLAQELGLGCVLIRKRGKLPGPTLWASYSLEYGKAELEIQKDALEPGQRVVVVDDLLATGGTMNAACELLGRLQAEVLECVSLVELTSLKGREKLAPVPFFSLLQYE

For experiment [9], the target named is T4, Ephrin type-B receptor 3 (Homo sapiens, UniProt P54753).
T4 sequence (P54753 whole entry): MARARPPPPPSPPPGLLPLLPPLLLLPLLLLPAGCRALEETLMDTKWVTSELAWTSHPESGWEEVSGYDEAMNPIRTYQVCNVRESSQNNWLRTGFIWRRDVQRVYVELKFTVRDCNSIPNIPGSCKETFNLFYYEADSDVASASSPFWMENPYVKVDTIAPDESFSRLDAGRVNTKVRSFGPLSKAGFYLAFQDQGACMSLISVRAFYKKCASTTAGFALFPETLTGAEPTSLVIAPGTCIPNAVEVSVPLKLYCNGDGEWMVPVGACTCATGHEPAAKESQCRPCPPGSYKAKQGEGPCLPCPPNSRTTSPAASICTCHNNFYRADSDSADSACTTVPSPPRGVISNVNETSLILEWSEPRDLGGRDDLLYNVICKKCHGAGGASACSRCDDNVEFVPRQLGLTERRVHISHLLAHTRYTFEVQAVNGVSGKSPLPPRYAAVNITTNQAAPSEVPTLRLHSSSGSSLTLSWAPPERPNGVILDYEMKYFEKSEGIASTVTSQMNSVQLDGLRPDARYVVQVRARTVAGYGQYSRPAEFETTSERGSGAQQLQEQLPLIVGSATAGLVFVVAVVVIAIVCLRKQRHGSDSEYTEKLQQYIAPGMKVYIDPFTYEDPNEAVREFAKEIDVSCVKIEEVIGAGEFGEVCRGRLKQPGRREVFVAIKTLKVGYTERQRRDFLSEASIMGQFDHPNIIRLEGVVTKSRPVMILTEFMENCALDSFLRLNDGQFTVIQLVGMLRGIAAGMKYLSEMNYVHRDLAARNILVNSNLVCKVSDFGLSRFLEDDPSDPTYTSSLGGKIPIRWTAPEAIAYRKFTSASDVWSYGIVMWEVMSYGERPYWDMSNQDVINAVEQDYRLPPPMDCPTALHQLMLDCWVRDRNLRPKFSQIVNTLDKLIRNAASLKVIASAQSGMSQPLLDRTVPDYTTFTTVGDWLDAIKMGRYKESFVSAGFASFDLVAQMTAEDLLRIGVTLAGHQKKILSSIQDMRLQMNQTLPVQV

The target of experiment [10] is Dual specificity mitogen-activated protein kinase kinase 2 (Homo sapiens, UniProt P36507).
Experiment [11] deals with GTP-binding protein 4 (Homo sapiens, UniProt Q9BZE4).
Note: in the data inactive means no Kd found up to 30 µM.

Sequence of Mitogen-activated protein kinase 9 (P45984 whole entry): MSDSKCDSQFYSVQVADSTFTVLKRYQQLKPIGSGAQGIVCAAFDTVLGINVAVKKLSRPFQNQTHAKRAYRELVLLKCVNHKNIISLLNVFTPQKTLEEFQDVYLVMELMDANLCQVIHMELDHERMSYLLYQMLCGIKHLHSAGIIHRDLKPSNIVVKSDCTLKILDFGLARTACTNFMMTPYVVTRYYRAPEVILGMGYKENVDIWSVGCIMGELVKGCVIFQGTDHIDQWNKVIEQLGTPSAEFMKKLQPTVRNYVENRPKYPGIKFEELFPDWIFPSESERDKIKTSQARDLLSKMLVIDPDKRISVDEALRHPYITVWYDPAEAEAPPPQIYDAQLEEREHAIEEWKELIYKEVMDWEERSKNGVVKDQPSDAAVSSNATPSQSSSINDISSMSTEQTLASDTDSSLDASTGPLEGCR
Sequence of Serine/threonine-protein kinase 16 (O75716 whole entry): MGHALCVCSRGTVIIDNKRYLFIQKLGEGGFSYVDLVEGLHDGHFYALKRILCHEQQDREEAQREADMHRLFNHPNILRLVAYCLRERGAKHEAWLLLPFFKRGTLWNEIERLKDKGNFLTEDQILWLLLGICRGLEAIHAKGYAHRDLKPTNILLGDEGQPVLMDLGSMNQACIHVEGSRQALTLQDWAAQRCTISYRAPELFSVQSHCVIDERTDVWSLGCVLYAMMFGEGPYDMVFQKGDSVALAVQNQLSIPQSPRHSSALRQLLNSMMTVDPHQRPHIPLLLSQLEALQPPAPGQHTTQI
Sequence of Calcium/calmodulin-dependent protein kinase type II subunit delta (Q13557 whole entry): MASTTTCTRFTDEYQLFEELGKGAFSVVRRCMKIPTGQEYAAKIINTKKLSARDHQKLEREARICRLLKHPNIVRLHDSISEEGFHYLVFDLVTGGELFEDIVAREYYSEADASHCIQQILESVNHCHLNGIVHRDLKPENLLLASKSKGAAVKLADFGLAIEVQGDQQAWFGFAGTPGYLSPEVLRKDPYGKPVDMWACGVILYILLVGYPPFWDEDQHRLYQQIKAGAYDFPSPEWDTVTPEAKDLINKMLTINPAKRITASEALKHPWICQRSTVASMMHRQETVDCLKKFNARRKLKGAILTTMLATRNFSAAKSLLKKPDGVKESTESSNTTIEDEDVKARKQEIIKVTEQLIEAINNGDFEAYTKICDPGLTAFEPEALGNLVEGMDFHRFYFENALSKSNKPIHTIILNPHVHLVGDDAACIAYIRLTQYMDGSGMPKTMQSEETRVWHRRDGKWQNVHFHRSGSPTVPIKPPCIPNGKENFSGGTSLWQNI
Sequence of 5'-AMP-activated protein kinase catalytic subunit alpha-1 (Q13131 whole entry): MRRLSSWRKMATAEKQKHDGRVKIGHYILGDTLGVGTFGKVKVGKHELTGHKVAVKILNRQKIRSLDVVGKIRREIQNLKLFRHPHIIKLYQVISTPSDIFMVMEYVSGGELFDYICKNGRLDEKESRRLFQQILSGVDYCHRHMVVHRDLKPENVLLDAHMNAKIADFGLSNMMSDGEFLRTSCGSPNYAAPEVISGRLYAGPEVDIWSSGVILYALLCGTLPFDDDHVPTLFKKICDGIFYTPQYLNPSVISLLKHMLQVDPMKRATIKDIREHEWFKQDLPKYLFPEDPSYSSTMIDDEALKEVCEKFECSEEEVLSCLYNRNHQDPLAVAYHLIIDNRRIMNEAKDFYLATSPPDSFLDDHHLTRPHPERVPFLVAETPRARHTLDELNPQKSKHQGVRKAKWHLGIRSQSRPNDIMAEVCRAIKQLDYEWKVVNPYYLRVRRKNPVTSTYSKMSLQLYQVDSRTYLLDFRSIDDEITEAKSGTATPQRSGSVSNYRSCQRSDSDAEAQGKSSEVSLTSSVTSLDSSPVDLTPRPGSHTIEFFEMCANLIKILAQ
Sequence of Mitogen-activated protein kinase 8 (P45983 whole entry): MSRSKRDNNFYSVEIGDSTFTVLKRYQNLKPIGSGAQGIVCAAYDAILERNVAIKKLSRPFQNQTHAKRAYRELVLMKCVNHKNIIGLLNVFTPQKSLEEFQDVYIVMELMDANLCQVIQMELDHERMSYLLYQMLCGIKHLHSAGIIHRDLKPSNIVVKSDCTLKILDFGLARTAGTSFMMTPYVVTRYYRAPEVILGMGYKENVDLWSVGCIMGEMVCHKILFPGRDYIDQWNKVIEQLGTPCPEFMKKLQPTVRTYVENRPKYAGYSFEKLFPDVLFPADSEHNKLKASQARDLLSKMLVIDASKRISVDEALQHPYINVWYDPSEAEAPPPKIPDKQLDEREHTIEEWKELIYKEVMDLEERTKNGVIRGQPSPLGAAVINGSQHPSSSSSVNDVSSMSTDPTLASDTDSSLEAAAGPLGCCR
Sequence of Dual specificity mitogen-activated protein kinase kinase 2 (P36507 whole entry): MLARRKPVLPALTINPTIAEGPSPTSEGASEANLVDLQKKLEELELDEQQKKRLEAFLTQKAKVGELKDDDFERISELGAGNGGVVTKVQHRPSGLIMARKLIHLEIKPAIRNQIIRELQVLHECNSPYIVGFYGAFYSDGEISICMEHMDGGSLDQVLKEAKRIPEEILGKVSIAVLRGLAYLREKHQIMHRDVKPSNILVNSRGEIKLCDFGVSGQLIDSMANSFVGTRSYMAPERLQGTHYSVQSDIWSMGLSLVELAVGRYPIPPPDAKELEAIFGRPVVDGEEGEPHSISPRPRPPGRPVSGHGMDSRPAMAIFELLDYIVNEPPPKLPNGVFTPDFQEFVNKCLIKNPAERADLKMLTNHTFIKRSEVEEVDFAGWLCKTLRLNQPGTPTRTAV

As usually defined, the Kd is the concentration at which binding is half-saturated. For `S=C(NCc1ccc2c(c1)OCO2)N1CCN(c2ncnc3c2oc2ccccc23)CC1` [AMUVATINIB], the Kd in experiment [1], in experiment [2], in experiment [3], in experiment [4], in experiment [5] and in experiment [6] was > 30 µM (inactive) each time. Besides, the Kd in [7], in experiment [8], in experiment [9], in [10] and in experiment [11] was > 30 µM (inactive) throughout.
For `COc1cccc2cc(-c3nc([C@H]4CC[C@H](C(=O)O)CC4)n4ncnc(N)c34)[nH]c12` [OSI-027], the Kd in [1], in [2], in experiment [3], in [4], in experiment [5] and in experiment [6] was > 30 µM (inactive) throughout. Besides, the Kd in [7], in [8], in experiment [9], in experiment [10] and in experiment [11] was > 30 µM (inactive) in each case.
In the case of `c1cc(OCCN2CCCCC2)cc(-c2n[nH]c3ccc(-c4nc[nH]n4)cc23)c1` [CC-401], the Kd in experiment [1] is > 30 µM (inactive); in experiment [2], 0.636 µM (active); in experiment [3], 0.34 µM (active); in experiment [4], > 30 µM (inactive); in [5], > 30 µM (inactive); in experiment [6] it was > 30 µM (inactive). For the same compound, the Kd in experiment [7], in [8], in [9], in experiment [10] and in experiment [11] was > 30 µM (inactive) throughout.
On to `COc1cc2ncnc(Nc3ccc(O)cc3)c2cc1OC` [WHI-P131], for which the Kd in experiment [1], in experiment [2], in experiment [3], in [4], in [5] and in [6] was > 30 µM (inactive) in each case. The Kd in [7], in [8], in experiment [9], in experiment [10] and in [11] was > 30 µM (inactive) in each case.
On to `O=C(Nc1ccc(OC(F)(F)F)cc1)c1sccc1NCc1ccnc2ccccc12` [OSI-930], for which the Kd in [1], in experiment [2], in experiment [3], in [4], in experiment [5] and in [6] was > 30 µM (inactive) in each case. The Kd in experiment [7], in [8], in experiment [9], in experiment [10] and in [11] was > 30 µM (inactive) throughout.
For the compound `CNC(=O)c1ccc(Nc2ncc(C(F)(F)F)c(NCc3nccnc3N(C)S(C)(=O)=O)n2)cc1` [DEFACTINIB], the Kd in experiment [1], in experiment [2], in [3], in experiment [4], in [5] and in experiment [6] was > 30 µM (inactive) throughout. Moreover, the Kd in experiment [8], in [9], in experiment [10] and in experiment [11] was > 30 µM (inactive) each time.
Take `COc1cccc(Nc2ncnn3ccc(CN4CC[C@@H](N)[C@H](O)C4)c23)c1` [BMS-690514]: the Kd in [1] was 0.703 µM (active); in [2], > 30 µM (inactive); in experiment [3], > 30 µM (inactive); in experiment [4], > 30 µM (inactive); in [5], > 30 µM (inactive); in experiment [6], > 30 µM (inactive). Also, the Kd in experiment [7], in experiment [8], in experiment [10] and in experiment [11] was > 30 µM (inactive) throughout.
For `COc1cc(Nc2ncc(F)c(Nc3ccc4c(n3)N(COP(=O)(O)O)C(=O)C(C)(C)O4)n2)cc(OC)c1OC` [FOSTAMATINIB], the Kd was > 30 µM (inactive) in [1]; 2.01 µM (active) in [2]; 1.53 µM (active) in experiment [3]; > 30 µM (inactive) in [4]; > 30 µM (inactive) in [5]; > 30 µM (inactive) in experiment [6]. The Kd in experiment [8], in [9], in experiment [10] and in [11] was > 30 µM (inactive) in each case.
In the case of `Cc1cc(-c2cc(OC(=O)c3ccccc3)ccc2Cl)cc2nnc(Nc3ccc(OCCN4CCCC4)cc3)nc12` [TG100-801], the Kd in experiment [1], in experiment [2], in experiment [3], in experiment [4], in experiment [5] and in [6] was > 30 µM (inactive) throughout. Further, the Kd in experiment [7], in [9], in [10] and in experiment [11] was > 30 µM (inactive) each time.
Turning to `Cc1c(Cn2c(C)nc3c(C(=O)O)cc(N4CCOCC4)cc32)cccc1C(F)(F)F` [GSK-2636771], the Kd in [1], in [2], in [3], in experiment [4], in experiment [5] and in experiment [6] was > 30 µM (inactive) throughout. Also, the Kd in [7], in experiment [9], in experiment [10] and in [11] was > 30 µM (inactive) each time.
